The record followed here is patent publication US10000516B2 (priority 2015, dated 2018).

What is called IC50 is the concentration that inhibits the measured activity by half.

Structures are written as SMILES.

For the first assay, the target named is T1, Human Factor D (Homo sapiens, UniProt P00746).
T1 construct: purified from human serum; purchased Complement Technology, Inc; host or cells: human serum (natural protein, not recombinant)
T1 sequence (P00746 26-253): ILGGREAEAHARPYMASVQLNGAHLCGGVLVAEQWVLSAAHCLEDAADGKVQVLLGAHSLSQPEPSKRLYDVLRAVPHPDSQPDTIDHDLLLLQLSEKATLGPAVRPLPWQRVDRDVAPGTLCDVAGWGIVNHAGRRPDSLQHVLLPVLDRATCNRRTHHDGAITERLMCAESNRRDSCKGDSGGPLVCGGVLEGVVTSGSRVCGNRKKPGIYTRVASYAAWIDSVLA
The assay can be described thus: Human Factor D assay (Z-L-Lys-SBzl/DTNB, absorbance at 405 nm).
Settings: not given
It is filed as biochemical. As for the experimental part:
Example 44. Human Factor D Assay
Human Factor D (purified from human serum, Complement Technology, Inc.) at 80 nM final concentration was incubated with test compound at various concentrations for 5 minutes at room temperature in 50 mM Tris, 1M NaCl, pH 7.5. A synthetic substrate Z-L-Lys-SBzl and DTNB (Ellman's reagent) are added to final concentrations of 100 µM each. Absorbance at 405 nm (A405) was recorded at 30 second intervals for 30 minutes using a microplate spectrophotometer. IC50 values are calculated by nonlinear regression of complement Factor D reaction rates as a function of test compound concentration.
The compound `O=C(NCc1cccc(Cl)c1F)[C@@H]1C[C@@H](F)CN1C(=O)Cn1cc(C(=O)C(F)(F)F)c2ccc(P(=O)(O)O)cc21` [Compound 32, 1-(2-((2S,4R)-2-(3-chloro-2-fluorobenzylcarbamoyl)-4-fluoropyrrolidin-1-yl)-2-oxoethyl)-3-(2,2,2-trifluoroacetyl)-1H-indol-6-ylphosphonic acid] came in with an IC50 of less than 1000 nM.

Still in this assay, the particulars now being: Table 1; Human Factor D 80 nM, purified from human serum; substrate Z-L-Lys-SBzl; read-out: IC50.
Turning to `CCOP(=O)(OCOC(=O)OC(C)C)c1ccc2c(C(C)=O)cn(CC(=O)N3C[C@H](F)C[C@H]3C(=O)NCc3cccc(Cl)c3F)c2c1` (stereo partly drawn) [Compound 6, ((3-acetyl-1-(2-((2S,4R)-2-(3-chloro-2-fluorobenzylcarbamoyl)-4-fluoropyrrolidin-1-yl)-2-oxoethyl)-1H-indol-6-yl)(ethoxy)phosphoryloxy) methyl isopropyl carbonate], the 50% inhibitory concentration (IC50) was less than 1000 nM. Still for that read-out and setting: with `CCCCOP(=O)(O)c1ccc2c(C(C)=O)cn(CC(=O)N3C[C@H](F)C[C@H]3C(=O)NCc3cccc(Cl)c3F)c2c1` [Compound 21, butyl hydrogen 3-acetyl-1-(2-((2S,4R)-2-(3-chloro-2-fluorobenzylcarbamoyl)-4-fluoropyrrolidin-1-yl)-2-oxoethyl)-1H-indol-6-ylphosphonate] the figure was less than 1000 nM. Turning to `CCOP(=O)(OCC)c1cc2c(cc1F)c(C(C)=O)cn2CC(=O)N1C[C@H](F)C[C@H]1C(=O)NCc1cccc(Cl)c1F` [Compound 30, diethyl 3-acetyl-1-(2-((2S,4R)-2-(3-chloro-2-fluorobenzylcarbamoyl)-4-fluoropyrrolidin-1-yl)-2-oxoethyl)-5-fluoro-1H-indol-6-ylphosphonate], the IC50 was less than 1000 nM. With `CCOP(=O)(OCC)c1ccc2c(C(=O)OC)cn(CC(=O)N3C[C@H](F)C[C@H]3C(=O)NCc3cccc(Cl)c3F)c2c1` [Compound 13, methyl 1-(2-((2S,4R)-2-(3-chloro-2-fluorobenzylcarbamoyl)-4-fluoropyrrolidin-1-yl)-2-oxoethyl)-6-(diethoxyphosphoryl)-1H-indole-3-carboxylate], the IC50 was less than 1000 nM. In the case of `CCOP(=O)(OCC)c1ccc2c(c1)c(C(C)=O)cn2CC(=O)N1C[C@H](F)C[C@H]1C(=O)NCc1cccc(Cl)c1F` [Compound 8, diethyl 3-acetyl-1-(2-((2S,4R)-2-(3-chloro-2-fluorobenzylcarbamoyl)-4-fluoropyrrolidin-1-yl)-2-oxoethyl)-1H-indol-5-ylphosphonate], the half-maximal inhibitory concentration (IC50) is less than 1000 nM.

Regarding `CC(=O)c1cn(CC(=O)N2C[C@H](F)C[C@H]2C(=O)NCc2cccc(Cl)c2F)c2cc(P(=O)(O)O)c(F)cc12` [Compound 31, 3-acetyl-1-(2-((2S,4R)-2-(3-chloro-2-fluorobenzylcarbamoyl)-4-fluoropyrrolidin-1-yl)-2-oxoethyl)-5-fluoro-1H-indol-6-ylphosphonic acid], the IC50 is less than 1000 nM. In the case of `CCOC(=O)c1nn(CC(=O)N2C[C@H](F)C[C@H]2C(=O)NCc2cccc(Cl)c2F)c2cc(P(=O)(OCC)OCC)ccc12` [Compound 11, ethyl 1-(2-((2S,4R)-2-(3-chloro-2-fluorobenzylcarbamoyl)-4-fluoropyrrolidin-1-yl)-2-oxoethyl)-6-(diethoxyphosphoryl)-1H-indazole-3-carboxylate], the IC50 is more than 10000 nM. Regarding `CCOP(=O)(OCC)c1ccc2c(C(N)=O)nn(CC(=O)N3C[C@H](F)C[C@H]3C(=O)NCc3cccc(Cl)c3F)c2c1` [Compound 17, diethyl 3-carbamoyl-1-(2-((2S,4R)-2-(3-chloro-2-fluorobenzylcarbamoyl)-4-fluoropyrrolidin-1-yl)-2-oxoethyl)-1H-indazol-6-ylphosphonate], the IC50 is less than 1000 nM.

For `COC(=O)c1cn(CC(=O)N2C[C@H](F)C[C@H]2C(=O)NCc2cccc(Cl)c2F)c2cc(P(=O)(O)O)ccc12` [Compound 14, 1-(2-((2S,4R)-2-(3-chloro-2-fluorobenzylcarbamoyl)-4-fluoropyrrolidin-1-yl)-2-oxoethyl)-3-(methoxycarbonyl)-1H-indol-6-ylphosphonic acid], the IC50 is less than 1000 nM. Consider `CCOP(=O)(CC)c1ccc2c(C(C)=O)cn(CC(=O)N3C[C@H](F)C[C@H]3C(=O)NCc3cccc(Cl)c3F)c2c1` (stereo partly drawn) [Compound 24, ethyl 3-acetyl-1-(2-((2S,4R)-2-(3-chloro-2-fluorobenzylcarbamoyl)-4-fluoropyrrolidin-1-yl)-2-oxoethyl)-1H-indol-6-yl(ethyl)phosphinate], for which the IC50 is less than 1000 nM.

Staying with this assay, now noted: Table 3; Human Factor D 80 nM, purified from human serum; substrate Z-L-Lys-SBzl; read-out: IC50 (Stars).
`CCOP(=O)(OCC)c1ccc2c(c1)c(C(C)=O)cn2CC(=O)N1C[C@H](F)C[C@H]1C(=O)NCCc1ccccc1` [Compound 78, diethyl (3-acetyl-1-(2-((2S,4R)-4-fluoro-2-(phenethylcarbamoyl)pyrrolidin-1-yl)-2-oxoethyl)-1H-indol-5-yl)phosphonate]: the IC50 is more than 10000 nM.

As for `CCOP(=O)(OCC)c1ccc2c(c1)c(C(C)=O)cn2CC(=O)N1CC[C@H]1C(=O)Nc1cccc(C)n1` [Compound 100, (S)-diethyl (3-acetyl-1-(2-(2-((6-methylpyridin-2-yl)carbamoyl)azetidin-1-yl)-2-oxoethyl)-1H-indol-5-yl)phosphonate], the IC50 is more than 10000 nM. For the compound `CCOP(=O)(OCC)c1ccc2c(c1)c(C(C)=O)cn2CC(=O)N1C[C@H](F)C[C@H]1C(=O)NCCCc1ccccc1` [Compound 82, diethyl (3-acetyl-1-(2-((2S,4R)-4-fluoro-2-((3-phenylpropyl)carbamoyl)pyrrolidin-1-yl)-2-oxoethyl)-1H-indol-5-yl)phosphonate], the concentration for half-maximal inhibition (IC50) was more than 10000 nM. On to `CCOP(=O)(OCC)c1ccc2c(c1)c(C(N)=O)cn2CC(=O)N1[C@@H]2CC[C@@H](C2)[C@H]1C(=O)Nc1cccc(C)n1` [Compound 102, diethyl (3-carbamoyl-1-(2-((1R,3S,4S)-3-((6-methylpyridin-2-yl)carbamoyl)-2-azabicyclo[2.2.1]heptan-2-yl)-2-oxoethyl)-1H-indol-5-yl)phosphonate], for which the IC50 is more than 10000 nM. Take `Cc1cccc(NC(=O)[C@@H]2[C@H]3CC[C@H](C3)N2C(=O)Cn2cc(C(N)=O)c3cc(P(=O)(O)O)ccc32)n1` [Compound 103, (3-carbamoyl-1-(2-((1R,3S,4S)-3-((6-methylpyridin-2-yl)carbamoyl)-2-azabicyclo[2.2.1]heptan-2-yl)-2-oxoethyl)-1H-indol-5-yl)phosphonic acid]: the IC50 is more than 10000 nM. For `CC(=O)c1cn(CC(=O)N2C[C@H](F)C[C@H]2C(=O)NCCCc2ccccc2)c2ccc(P(=O)(O)O)cc12` [Compound 83, (3-acetyl-1-(2-((2S,4R)-4-fluoro-2-((3-phenylpropyl)carbamoyl)pyrrolidin-1-yl)-2-oxoethyl)-1H-indol-5-yl)phosphonic acid], the 50% inhibitory concentration (IC50) is more than 10000 nM. Regarding `CCOP(=O)(OCC)c1ccc2c(c1)c(C(C)=O)cn2CC(=O)N1C[C@H](F)C[C@H]1C(=O)NCCCCc1ccccc1` [Compound 86, diethyl (3-acetyl-1-(2-((2S,4R)-4-fluoro-2-((4-phenylbutyl)carbamoyl)pyrrolidin-1-yl)-2-oxoethyl)-1H-indol-5-yl)phosphonate], the IC50 was more than 10000 nM.

For `CCOP(=O)(OCC)c1nc2c(s1)c(C(N)=O)nn2CC(=O)N1[C@@H]2C[C@@H]2C[C@H]1C(=O)Nc1cccc(-c2cc(C(C)=O)ccc2Cl)c1F` [Compound 104, diethyl (1-(2-((1R,3S,5R)-3-((5′-acetyl-2′-chloro-2-fIuoro-[1,1′-biphenyl]-3-yl)carbamoyl)-2-azabicyclo[3.1.0]hexan-2-yl)-2-oxoethyl)-3-carbamoyl-1H-pyrazolo[3,4-d]thiazol-5-yl)phosphonate], the IC50 was less than 1000 nM.
